According to patent publication US8772480B2, “Inhibitors of PI3 kinase and/or mTOR” (priority 2009, dated 2014):

Assays:
[1] = molecular target: human mutant B-raf (HuBraf V600E) (Homo sapiens (Human), UniProt P15056, V600E); conditions: at 10 μM compound concentration; POC = 100 − percent inhibition
Protocol: B-Raf Homogenous Time Resolved Fluorescence (HTRF) Kinase Assay
The final concentration of the kinase reaction buffer is 50 mM Tris-HCl pH 7.5, 10 mM MgCl2, 0.5% glucose, 0.5 mM DTT, 0.01% BSA. […] The detection reaction proceeds for one hour and is read on a RubyStar (BMG Labtech, Durham, N.C.) counter. IC50s for the test compounds are generated using Excel-XLfit software. For single concentration percent of control (POC;=100−percent inhibition) assays, compounds were assayed as above at a single test concentration of 10 M test compound.

[2] = test system: phosphorylation of Akt at Serine 473 in U87 MG cells; experiment: cells; conditions: Homo sapiens, U-87 MG, 2 h, read-out: U87Cell IC50, pAkt (Ser 473), U87 MG cells, two hours with compound
[3] = molecular target: PI3Kα (Homo sapiens (Human), UniProt P42336); conditions: read-out: PI3Kα AlphaScreen ® Ki
Chain of PI3Kα (P42336 whole entry): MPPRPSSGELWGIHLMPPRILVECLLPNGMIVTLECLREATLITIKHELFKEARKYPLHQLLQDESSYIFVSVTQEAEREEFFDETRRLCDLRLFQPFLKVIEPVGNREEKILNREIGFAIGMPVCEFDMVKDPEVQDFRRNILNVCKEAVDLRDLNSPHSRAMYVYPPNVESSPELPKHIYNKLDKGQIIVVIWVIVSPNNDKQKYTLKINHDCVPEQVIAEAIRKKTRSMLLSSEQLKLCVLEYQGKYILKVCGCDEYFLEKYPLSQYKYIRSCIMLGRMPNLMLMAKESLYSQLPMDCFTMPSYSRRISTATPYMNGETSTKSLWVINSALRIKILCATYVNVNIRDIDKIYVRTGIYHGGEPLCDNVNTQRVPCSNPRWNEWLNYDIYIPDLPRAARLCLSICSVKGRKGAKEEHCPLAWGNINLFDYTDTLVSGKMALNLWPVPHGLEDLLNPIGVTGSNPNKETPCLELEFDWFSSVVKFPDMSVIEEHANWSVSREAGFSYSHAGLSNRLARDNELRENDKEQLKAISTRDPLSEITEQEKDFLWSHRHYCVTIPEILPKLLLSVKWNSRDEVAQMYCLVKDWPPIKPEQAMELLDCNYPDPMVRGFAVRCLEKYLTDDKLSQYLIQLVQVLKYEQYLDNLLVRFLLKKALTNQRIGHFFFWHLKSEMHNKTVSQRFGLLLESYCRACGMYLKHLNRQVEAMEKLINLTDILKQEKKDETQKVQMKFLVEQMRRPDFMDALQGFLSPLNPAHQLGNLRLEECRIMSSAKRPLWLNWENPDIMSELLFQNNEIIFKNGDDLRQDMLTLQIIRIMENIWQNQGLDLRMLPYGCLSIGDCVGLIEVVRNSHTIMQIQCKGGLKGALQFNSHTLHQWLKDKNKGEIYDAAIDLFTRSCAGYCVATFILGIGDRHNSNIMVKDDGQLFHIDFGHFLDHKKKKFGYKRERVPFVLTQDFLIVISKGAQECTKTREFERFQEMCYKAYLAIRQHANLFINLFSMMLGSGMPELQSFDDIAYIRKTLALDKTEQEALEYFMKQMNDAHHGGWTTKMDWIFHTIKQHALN
Chain of PI3Kα (P27986 whole entry partner): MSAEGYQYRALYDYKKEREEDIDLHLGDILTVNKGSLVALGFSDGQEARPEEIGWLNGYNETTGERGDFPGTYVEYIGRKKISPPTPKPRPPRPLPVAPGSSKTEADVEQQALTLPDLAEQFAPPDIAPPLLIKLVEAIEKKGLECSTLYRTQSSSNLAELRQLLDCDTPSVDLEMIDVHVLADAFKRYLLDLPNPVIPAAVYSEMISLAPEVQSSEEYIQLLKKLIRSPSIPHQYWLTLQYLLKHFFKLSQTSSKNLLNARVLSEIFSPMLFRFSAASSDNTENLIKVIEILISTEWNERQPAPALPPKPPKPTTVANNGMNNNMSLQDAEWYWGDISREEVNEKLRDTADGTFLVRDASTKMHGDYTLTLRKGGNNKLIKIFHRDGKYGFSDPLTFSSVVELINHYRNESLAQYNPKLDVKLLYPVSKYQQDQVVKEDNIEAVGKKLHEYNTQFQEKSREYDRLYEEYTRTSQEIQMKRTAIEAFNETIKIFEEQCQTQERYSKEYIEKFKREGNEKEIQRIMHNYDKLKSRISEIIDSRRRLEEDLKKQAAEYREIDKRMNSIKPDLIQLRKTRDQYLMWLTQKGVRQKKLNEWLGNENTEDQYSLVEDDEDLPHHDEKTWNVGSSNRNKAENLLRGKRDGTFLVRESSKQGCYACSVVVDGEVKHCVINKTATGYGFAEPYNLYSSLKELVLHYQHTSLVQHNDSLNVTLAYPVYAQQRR

Chain of human mutant B-raf (HuBraf V600E) (P15056 whole entry V600E): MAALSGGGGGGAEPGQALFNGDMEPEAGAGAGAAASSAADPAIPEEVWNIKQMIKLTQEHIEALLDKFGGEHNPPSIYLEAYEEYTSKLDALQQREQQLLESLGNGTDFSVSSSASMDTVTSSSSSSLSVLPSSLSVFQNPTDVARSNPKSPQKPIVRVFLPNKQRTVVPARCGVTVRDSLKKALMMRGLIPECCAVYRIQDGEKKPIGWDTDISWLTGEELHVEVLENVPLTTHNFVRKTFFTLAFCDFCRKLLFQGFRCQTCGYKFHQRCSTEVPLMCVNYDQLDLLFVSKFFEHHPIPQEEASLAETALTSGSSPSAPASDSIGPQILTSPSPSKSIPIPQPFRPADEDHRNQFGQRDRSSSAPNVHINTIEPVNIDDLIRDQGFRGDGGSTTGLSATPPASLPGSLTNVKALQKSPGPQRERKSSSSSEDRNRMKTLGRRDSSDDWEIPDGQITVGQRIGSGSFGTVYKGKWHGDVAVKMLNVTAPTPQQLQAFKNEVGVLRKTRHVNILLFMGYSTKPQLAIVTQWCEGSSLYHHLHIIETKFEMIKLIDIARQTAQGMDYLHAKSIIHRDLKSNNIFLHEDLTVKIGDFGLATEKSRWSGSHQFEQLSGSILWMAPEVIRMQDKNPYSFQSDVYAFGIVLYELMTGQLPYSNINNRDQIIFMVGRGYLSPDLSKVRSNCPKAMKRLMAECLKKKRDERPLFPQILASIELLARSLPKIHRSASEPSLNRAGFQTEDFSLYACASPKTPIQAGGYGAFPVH

In the case of `Cc1nc(-c2cccnc2Nc2cccc3[nH]ccc23)c2nc[nH]c2n1` [Example 56, N-(3-(2-methyl-9H-purin-6-yl)pyridin-2-yl)-1H-indol-4-amine], the “Mutant B-raf HTRF Assay POC Mean n = 2” value [1] is reported as 58% of Control (POC).
In the case of `COc1ccc(Nc2ncccc2-c2nc(C)nc(N)n2)cn1` [Example 25, 4-(2-(6-Methoxypyridin-3-Ylamino)Pyridin-3-yl)-6-Methyl-1,3,5-Triazin-2-Amine], the “Mutant B-raf HTRF Assay POC Mean n = 2” value [1] is reported as 95% of Control (POC).
For `COc1cnc(Nc2ccc(OC)nc2)c(-c2nc(C)nc(N)n2)c1` [Example 33, 4-(5-Methoxy-2-(6-Methoxypyridin-3-Ylamino)Pyridin-3-yl)-6-Methyl-1,3,5-Triazin-2-Amine], the “Mutant B-raf HTRF Assay POC Mean n = 2” value [1] was 94% of Control (POC).
`COc1ccc(Nc2ncc(N3CCC(O)C3)cc2-c2nc(C)nc3[nH]cnc23)cn1` (stereo not shown) [Example 98, 1-(6-(6-Methoxypyridin-3-Ylamino)-5-(2-Methyl-9H-Purin-6-yl)Pyridin-3-yl)Pyrrolidin-3-ol] showed an IC50 [2] of 297 nM and a Ki [3] of 79 nM.
`COc1ccc(Nc2ncc(CNCc3cccnc3)cc2-c2nc(C)nc3[nH]cnc23)cn1` [Example 138, N-(6-methoxypyridin-3-yl)-3-(2-methyl-9H-purin-6-yl)-5-((pyridin-3-ylmethylamino)methyl)pyridin-2-amine] was tested, and the IC50 [2] was 172 nM and the Ki [3] was 48 nM.
`COc1ccc(Nc2ncc(N3CC[C@@H](O)C3)cc2-c2nc(C)nc3[nH]cnc23)cn1` [Example 206, (3R)-1-(6-((6-Methoxy-3-Pyridinyl)Amino)-5-(2-Methyl-9H-Purin-6-yl)-3-Pyridinyl)-3-Pyrrolidinol] showed an IC50 [2] of 387 nM and a Ki [3] of 68 nM.
Molecule `COc1ccc(Nc2ncc(C(C)N3CCN(S(C)(=O)=O)CC3)nc2-c2cc(N)nc(C)n2)cn1` (stereo not shown) [Example 286, 6-(3-(6-Methoxypyridin-3-Ylamino)-6-(1-(4-(Methylsulfonyl)Piperazin-1-yl)Ethyl)Pyrazin-2-yl)-2-Methylpyrimidin-4-Amine] has an IC50 [2] of 111 nM and a Ki [3] of 11 nM.
In the case of `COc1ncc(Nc2ncc([C@H](C)N3CCOCC3)cc2-c2nc(C)nc(N)n2)cc1F` (single isomer, unassigned) [Example 292], the IC50 [2] is reported as 20 nM and the Ki [3] is reported as 44 nM.
`Cc1nc(N)nc(-c2cccnc2Nc2cc[nH]c(=O)c2)n1` [Example 263, 4-(3-(4-Amino-6-Methyl-1,3,5-Triazin-2-yl)Pyridin-2-Ylamino)Pyridin-2(1H)-One] was tested, and the IC50 [2] was > 10000 nM and the Ki [3] was 643 nM.
With `COc1ccc(Nc2nc(N3CCOCC3)ncc2-c2nc(C)nc(N)n2)cn1` [Example 120, 4-(4-(6-methoxypyridin-3-ylamino)-2-morpholinopyrimidin-5-yl)-6-methyl-1,3,5-triazin-2-amine] the IC50 [2] was 148 nM and the Ki [3] was 97 nM.
`COc1ccc(Nc2ncc(N3CC[C@H](CO)C3)cc2-c2nc(C)nc3[nH]cnc23)cn1` [Example 204, ((3S)-1-(6-((6-Methoxy-3-Pyridinyl)Amino)-5-(2-Methyl-9H-Purin-6-yl)-3-Pyridinyl)-3-Pyrrolidinyl)Methanol] was tested, and the IC50 [2] was 434 nM and the Ki [3] was 40 nM.
In the case of `Cc1nc(N)cc(-c2cccnc2Nc2cnc(Cl)c(NS(=O)(=O)N(C)C)c2)n1` [Example 375, N-(5-(3-(6-Amino-2-Methylpyrimidin-4-yl)Pyridin-2-Ylamino)-2-Chloropyridin-3-yl)-N,N-Dimethylaminosulfamide], the IC50 [2] is reported as 175 nM and the Ki [3] is reported as 152 nM.
Molecule `Cc1nc(N)nc(-c2cc(C(C)N3CCOCC3)cnc2Nc2cnc(Cl)c(NS(C)(=O)=O)c2)n1` (stereo not shown) [Example 369, N-(5-(3-(4-Amino-6-Methyl-1,3,5-Triazin-2-yl)-5-(1-Morpholinoethyl)Pyridin-2-Ylamino)-2-Chloropyridin-3-yl)Methanesulfonamide] has an IC50 [2] of 9 nM and a Ki [3] of 8 nM.
Work on `COc1ccc(Nc2ncc(C(O)c3ccc(S(C)(=O)=O)cc3)cc2-c2nc(C)nc3[nH]cnc23)cn1` (stereo not shown) [Example 139, (6-(6-methoxypyridin-3-ylamino)-5-(2-methyl-9H-purin-6-yl)pyridin-3-yl)(4-(methylsulfonyl)phenyl)methanol] yielded an IC50 [2] of 185 nM and a Ki [3] of 5 nM.
`COc1ccc(Nc2ncc(CN3CCN(S(C)(=O)=O)C[C@H]3C)cc2-c2nc(C)nc(N)n2)cn1` [Example 158, (R)-4-(2-(6-Methoxypyridin-3-Ylamino)-5-((2-Methyl-4-(Methylsulfonyl)Piperazin-1-yl)Methyl)Pyridin-3-yl)-6-Methyl-1,3,5-Triazin-2-Amine] showed an IC50 [2] of 16 nM and a Ki [3] of 7 nM.
In the case of `Cc1nc(N)nc(-c2cc([C@@H](C)N3CCN(S(C)(=O)=O)C[C@@H]3C)cnc2Nc2ccc(Cl)nc2)n1` [Example 363, 4-(2-(6-Chloropyridin-3-Ylamino)-5-((R)-1-((S)-2-Methyl-4-(Methylsulfonyl)Piperazin-1-yl)Ethyl)Pyridin-3-yl)-6-Methyl-1,3,5-Triazin-2-Amine], the IC50 [2] is reported as 31 nM and the Ki [3] is reported as 15 nM.
`COc1ncc(Nc2ncc(CN3CCN(C(=O)N(C)C(C)C)CC3)cc2-c2nc(C)nc(N)n2)cc1F` [Example 357, 4-((5-(4-Amino-6-Methyl-1,3,5-Triazin-2-yl)-6-(5-Fluoro-6-Methoxypyridin-3-Ylamino)Pyridin-3-yl)Methyl)-N-Isopropyl-N-Methylpiperazine-1-Carboxamide] showed an IC50 [2] of 83 nM and a Ki [3] of 14 nM.
`COc1ncc(Nc2ncccc2-c2nc(C)nc(N)n2)cc1Cl` [Example 173, 4-(2-(5-Chloro-6-Methoxypyridin-3-Ylamino)Pyridin-3-yl)-6-Methyl-1,3,5-Triazin-2-Amine] was tested, and the IC50 [2] was 353 nM and the Ki [3] was 60 nM.
For `COCCOc1ccc(-c2nc(C)nc(N)n2)c(Nc2cnc(OC)c(F)c2)n1` [Example 259, 4-(2-(5-Fluoro-6-Methoxypyridin-3-Ylamino)-6-(2-Methoxyethoxy)Pyridin-3-yl)-6-Methyl-1,3,5-Triazin-2-Amine], the IC50 [2] was 190 nM and the Ki [3] was 81 nM.
In the case of `COc1cc(Nc2ncc([C@@H](C)N3CCN(S(C)(=O)=O)CC3)cc2-c2nc(C)nc(N)n2)cnc1Cl` [Example 341, (R)-4-(2-(6-Chloro-5-Methoxypyridin-3-Ylamino)-5-(1-(4-(Methylsulfonyl)Piperazin-1-yl)Ethyl)Pyridin-3-yl)-6-Methyl-1,3,5-Triazin-2-Amine], the IC50 [2] is reported as 17 nM and the Ki [3] is reported as 19 nM.
With `COc1ncc(Nc2ncc(C(C)(C)N)cc2-c2nc(C)nc(N)n2)cc1F` [Example 278, 4-(5-(2-Aminopropan-2-yl)-2-(5-Fluoro-6-Methoxypyridin-3-Ylamino)Pyridin-3-yl)-6-Methyl-1,3,5-Triazin-2-Amine] the IC50 [2] was 24 nM and the Ki [3] was 45 nM.
In the case of `COc1ncc(Nc2nc(CN3CCOCC3)ccc2-c2nc(C)nc(N)n2)cc1F` [Example 198, 4-(2-(5-Fluoro-6-Methoxypyridin-3-Ylamino)-6-(Morpholinomethyl)Pyridin-3-yl)-6-Methyl-1,3,5-Triazin-2-Amine], the IC50 [2] is reported as 219 nM and the Ki [3] is reported as 276 nM.
In the case of `COc1ccc(Nc2nc3ccccc3cc2-c2nc(C)nc(N)n2)cn1` [Example 238, 3-(4-Amino-6-Methyl-1,3,5-Triazin-2-yl)-N-(6-Methoxypyridin-3-yl)Quinolin-2-Amine], the IC50 [2] is reported as 245 nM and the Ki [3] is reported as 45 nM.
In the case of `Cc1nc(N)nc(-c2cc([C@H](C)N3CCOCC3)cnc2Nc2cnc(Cl)c(NS(C)(=O)=O)c2)n1` (single isomer, unassigned) [Example 372], the IC50 [2] is reported as 4 nM and the Ki [3] is reported as 5 nM.
Molecule `COc1ccc(Nc2ncc(CN3CCn4ncnc4C3)cc2-c2nc(C)nc(N)n2)cn1` [Example 233, 4-(5-((5,6-Dihydro-[1,2,4]Triazolo[1,5-A]Pyrazin-7(8H)-yl)Methyl)-2-(6-Methoxypyridin-3-Ylamino)Pyridin-3-yl)-6-Methyl-1,3,5-Triazin-2-Amine] has an IC50 [2] of 58 nM and a Ki [3] of 41 nM.
`Cc1nc(N)nc(-c2cc([C@@H](C)N3CCOCC3)cnc2Nc2cnc(Cl)c(NS(=O)(=O)N(C)C)c2)n1` [Example 373, (R)—N-(5-(3-(4-Amino-6-Methyl-1,3,5-Triazin-2-yl)-5-(1-Morpholinoethyl)Pyridin-2-Ylamino)-2-Chloropyridin-3-yl)-N,N-Dimethylaminosulfamide] showed an IC50 [2] of 1 nM and a Ki [3] of 6 nM.
For `COC(=O)N1CCN(Cc2cnc(Nc3ccc(OC)nc3)c(-c3nc(C)nc4[nH]cnc34)c2)CC1` [Example 86, Methyl 4-((6-(6-Methoxypyridin-3-Ylamino)-5-(2-Methyl-9H-Purin-6-yl)Pyridin-3-yl)Methyl)Piperazine-1-Carboxylate], the IC50 [2] was 63 nM and the Ki [3] was 18 nM.
Molecule `COc1ccc(Nc2ccncc2-c2nc(C)nc3[nH]cnc23)cn1` [Example 111, 6-methoxy-N-(3-(2-methyl-9H-purin-6-yl)pyridin-4-yl)pyridin-3-amine] has an IC50 [2] of 1170 nM and a Ki [3] of 252 nM.
In the case of `COCCNc1cnc(Nc2ccc(OC)nc2)c(-c2nc(C)nc3[nH]cnc23)c1` [Example 93, N5-(2-methoxyethyl)-N2-(6-methoxypyridin-3-yl)-3-(2-methyl-9H-purin-6-yl)pyridine-2,5-diamine], the IC50 [2] is reported as 929 nM and the Ki [3] is reported as 104 nM.
In the case of `COc1ccc(Nc2ncc(CN3CC(O)C3)cc2-c2nc(C)nc(N)n2)cn1` [Example 229, 1-((5-(4-Amino-6-Methyl-1,3,5-Triazin-2-yl)-6-(6-Methoxypyridin-3-Ylamino)Pyridin-3-yl)Methyl)Azetidin-3-ol], the IC50 [2] is reported as 276 nM and the Ki [3] is reported as 59 nM.
`COc1ccc(Nc2ncc(CN3CC4(C3)NC(=O)NC4=O)cc2-c2nc(C)nc(N)n2)cn1` [Example 230, 2-((5-(4-Amino-6-Methyl-1,3,5-Triazin-2-yl)-6-(6-Methoxypyridin-3-Ylamino)Pyridin-3-yl)Methyl)-2,5,7-Triazaspiro[3.4]Octane-6,8-Dione] was tested, and the IC50 [2] was 2470 nM and the Ki [3] was 68 nM.
Work on `COc1ncc(Nc2ncc(C(C)NC(C)C)cc2-c2nc(C)nc(N)n2)cc1F` (stereo not shown) [Example 299, 4-(2-(5-Fluoro-6-Methoxypyridin-3-Ylamino)-5-(1-(Isopropylamino)Ethyl)Pyridin-3-yl)-6-Methyl-1,3,5-Triazin-2-Amine] yielded an IC50 [2] of 45 nM and a Ki [3] of 61 nM.
